From US11332438B2, “Creatine prodrugs, compositions and methods of use thereof” (Ultragenyx Pharmaceutical Inc., priority 2017, dated 2022)

Tests used:
[1] = Plasma stability, human plasma; assay type: in vitro ADME; conditions: 37 °C, read-out: Plasma Stability Human t1/2
Experimental: (§1) The stabilities of creatine prodrugs can be evaluated in one or more in vitro systems using a variety of preparations following methods known in the art. Experimental conditions useful for the in vitro studies are described in Table 1. Prodrug is added to each preparation in triplicate. […]
(§2) Protocol for plasma stability for early screen macrocycles (Method A):
(§3) Frozen plasma was thawed by placing at 37° C. quickly and centrifuged at 3,000 rpm for 8 minutes to remove clots. Then the supernatant was pipetted and pooled as the plasma to be used in the experiment. The plasma was placed on ice until used. The test compounds and reference compounds spiking solution was prepared as a 2.5 mM test compounds spiking solution A: Add 20 μL of 10 mM test compounds stock solution to 60 μL DMSO. 0.1 mM Spiking solution B was prepared: Add 40 μL of spiking solution A to 960 μL of […] Sodium phosphate buffer with 0.5% BSA. […] For 0-min, 400 μL of ACN containing IS was added to the wells of 0-min plate and then 90 μL of plasma was added. […] 50 μL of the supernatant was transferred from each well into a 96-well sample plate containing 120 μL of ultra pure water (Millipore, ZMQS50F01) and analyzed by LC/MS.
(§4) Protocol for plasma stability (Method B):
(§5) The frozen plasma was thawed in a 37° C. water bath and then, if needed, adjusted to pH=7.4 then preheated in a 37° C. incubator. The test article was dissolved in 10% DMSO/water and spiked into plasma pre-plated into 96 well plates at a final concentration of 1 μM. Discrete incubations were performed at 37° C. and included 5 time points: t=0, 2, 5, 15, and 30 min. Samples were then crashed with 4× volume, ice cold 20% water/80% acetonitrile and spun at 4000 g for 10 mins. The supernatant was dried down and reconstituted with water and analyzed by LC-MS/MS. The half life in minute was calculated.

[2] = Plasma stability, mouse plasma; assay type: in vitro ADME; conditions: 37 °C, read-out: Plasma Stability Mouse t1/2
Experimental: as §1, §2, §3, §4, §5

[3] = Liver microsome stability, human; assay type: in vitro ADME; conditions: liver microsomes, read-out: Microsome Stability Human t1/2
Experimental: as §1
(§6) Protocol for Microsomal Stability:
(§7) For reference compound, a 500 μM spiking solution was prepared: add 10 μL of 10 mM DMSO stock solution into 190 μL ACN. […] For test compound, a 5 mM spiking solution was prepared: add 10 μL of 10 mM DMSO stock solution into 10 μL ACN. […] NADPH stock solution (6 mM) was prepared by dissolving NADPH into buffer 0.1 M Potassium Phosphate buffer, 1.0 mM EDTA, pH 7.4. […] For 0-min, 135 μL of ACN containing IS was added to the wells of 0-min plate and then 15 μL of NADPH stock solution (6 mM) was added. 15 μL of NADPH stock solution (6 mM) was added to the samples designated as 0-, 5-, 10-, 20-, 30-min, 60-min; 15 μL of buffer 0.1 M Potassium Phosphate buffer, 1.0 mM EDTA, pH 7.4, was added to the samples designated as 60-min without NADPH. At 5-min, 10-min, 20-min, and 30-min, 60-min 135 μL of ACN containing IS was added to the wells of corresponding plates, respectively, to stop the reaction. […] 50 μL of the supernatant from each well was transferred into a 96-well sample plate containing 50 μL of ultra pure water (Millipore, ZMQS50FOI) and analyzed by LC/MS.

[4] = Liver microsome stability, mouse; assay type: in vitro ADME; conditions: liver microsomes, read-out: Microsome Stability Mouse t1/2
Experimental: as §1, §6, §7

[5] = Chemical stability in phosphate buffered saline (PBS); assay type: physicochemical; conditions: 50 μM prodrug
Experimental: (§8) Chemical stability of creatine prodrugs in phosphate buffered saline (PBS), simulated intestinal fluid (SIF) without pancreatin, simulated gastric fluid (SGF) without pepsin were determined by LC-UV, LC-CAD, LC-UV-CAD or LC-MS/MS as appropriate. Creatine prodrugs of the present disclosure (50 μM) were incubated at 37° C. according to described protocols and prodrug levels were compared between t=0, t=15, t=60, and t=120 mins by peak area ratio to determine the percentage remained at t=120 mins (2 h).
(§9) Protocol for PBS, SIF and SGF stability for screening:
(§10) Prodrugs (50 μM) were incubated in PBS, FaSSIF (Biorelevant) or FaSSGF (Biorelevant) at 37° C.

[6] = Chemical stability in simulated gastric fluid (SGF) without pepsin; assay type: physicochemical; conditions: 50 μM prodrug
Experimental: as §8, §9, §10

[2H]C([2H])([2H])N(CC(=O)O)C(=N)NC(=O)CCCCCCC/C=C\CCCCCC [Compound 28]
half-life ([1]; Table 2A): > 3 h
half-life ([2]; Table 2A): > 3 h
half-life at 10 μM ([3]; pH 7.4, Table 2A): 1.5 h
half-life at 10 μM ([4]; pH 7.4, Table 2A): 1.4 h
Chemical Stability PBS % T0 at 2 hours at 37 °C. ([5]; Table 2A): 51%
Chemical Stability SGF, no enzyme % T0 at 2 hours at 37 °C. ([6]; Table 2A): 99%

[2H]C([2H])([2H])N(CC(=O)[O-])C(=N)NC(=O)CCCCCCCCCCCC.[Na+] [Compound 29]
half-life ([1]; Table 2A): > 3 h
half-life ([2]; Table 2A): > 3 h
half-life at 10 μM ([3]; pH 7.4, Table 2A): 0.983 h
half-life at 10 μM ([4]; pH 7.4, Table 2A): 1.83 h
Chemical Stability PBS % T0 at 2 hours at 37 °C. ([5]; Table 2A): 64%
Chemical Stability SGF, no enzyme % T0 at 2 hours at 37 °C. ([6]; Table 2A): 91%

[2H]C([2H])([2H])N(CC(=O)[O-])C(=N)NC(=O)CCCCCCCCCCC.[Na+] [Compound 31]
half-life ([1]; Table 2A): > 3 h
half-life ([2]; Table 2A): > 3 h
half-life at 10 μM ([3]; pH 7.4, Table 2A): 0.983 h
half-life at 10 μM ([4]; pH 7.4, Table 2A): > 2.42 h
Chemical Stability PBS % T0 at 2 hours at 37 °C. ([5]; Table 2A): 98%
Chemical Stability SGF, no enzyme % T0 at 2 hours at 37 °C. ([6]; Table 2A): 98%

[2H]C([2H])([2H])N(CC(=O)[O-])C(=N)NC(=O)CCCCCCCCCC.[K+] [Compound 33]
half-life ([1]; Table 2A): > 3 h
half-life ([2]; Table 2A): > 3 h
half-life at 10 μM ([3]; pH 7.4, Table 2A): 1.2 h
half-life at 10 μM ([4]; pH 7.4, Table 2A): 1.77 h
Chemical Stability PBS % T0 at 2 hours at 37 °C. ([5]; Table 2A): 85%
Chemical Stability SGF, no enzyme % T0 at 2 hours at 37 °C. ([6]; Table 2A): 79%

[2H]C([2H])([2H])N(CC(=O)[O-])C(=N)NC(=O)CCCCCCCC.[Li+] [Compound 35]
half-life ([1]; Table 2A): > 3 h
half-life ([2]; Table 2A): > 3 h
half-life at 10 μM ([3]; pH 7.4, Table 2A): 1.08 h
half-life at 10 μM ([4]; pH 7.4, Table 2A): > 2.42 h
Chemical Stability PBS % T0 at 2 hours at 37 °C. ([5]; Table 2A): 116%
Chemical Stability SGF, no enzyme % T0 at 2 hours at 37 °C. ([6]; Table 2A): 86%

[2H]C([2H])([2H])N(CC(=O)[O-])C(=N)NC(=O)CCCCCCCC.[Na+] [Compound 36]
half-life ([1]; Table 2A): > 3 h
half-life ([2]; Table 2A): > 3 h
half-life at 10 μM ([3]; pH 7.4, Table 2A): 1.7 h
half-life at 10 μM ([4]; pH 7.4, Table 2A): > 2.42 h
Chemical Stability PBS % T0 at 2 hours at 37 °C. ([5]; Table 2A): 106%
Chemical Stability SGF, no enzyme % T0 at 2 hours at 37 °C. ([6]; Table 2A): 99%

[2H]C([2H])([2H])N(CC(=O)[O-])C(=N)NC(=O)CCCCCCC.[Na+] [Compound 38]
half-life ([1]; Table 2A): > 3 h
half-life ([2]; Table 2A): > 3 h
half-life at 10 μM ([3]; pH 7.4, Table 2A): > 2.42 h
half-life at 10 μM ([4]; pH 7.4, Table 2A): > 2.42 h
Chemical Stability PBS % T0 at 2 hours at 37 °C. ([5]; Table 2A): 101%
Chemical Stability SGF, no enzyme % T0 at 2 hours at 37 °C. ([6]; Table 2A): 99%

Cl.[2H]C([2H])([2H])N(CC(=O)OC(C)(C)C)C(=N)NC(=O)CCCCCCCCCC [Compound 44]
half-life ([1]; Table 2A): 1.67 h
half-life ([2]; Table 2A): 0.133 h
half-life at 10 μM ([3]; pH 7.4, Table 2A): 0.15 h
half-life at 10 μM ([3]; pH 7.4, Table 2B): 0.15 h
half-life at 10 μM ([4]; pH 7.4, Table 2A): < 0.0833 h
half-life at 10 μM ([4]; pH 7.4, Table 2B): < 0.0833 h
Chemical Stability PBS % T0 at 2 hours at 37 °C. ([5]; Table 2A): 42%
Chemical Stability PBS % T0 at 2 hours at 37 °C. ([5]; Table 2B): 107%
Chemical Stability SGF, no enzyme % T0 at 2 hours at 37 °C. ([6]; Table 2A): 86%
Chemical Stability SGF, no enzyme % T0 at 2 hours at 37 °C. ([6]; Table 2B): 95%

[2H]C([2H])([2H])N(CC(=O)OCC)/C(=N\C(=O)OC(C)(C)C)NC(=O)CCCCCCCCCC [Compound 47]
half-life ([1]; Table 2A): 2.82 h
half-life ([2]; Table 2A): < 0.0833 h
half-life at 10 μM ([3]; pH 7.4, Table 2A): 0.267 h
half-life at 10 μM ([4]; pH 7.4, Table 2A): 0.0833 h
Chemical Stability PBS % T0 at 2 hours at 37 °C. ([5]; Table 2A): 55%
Chemical Stability SGF, no enzyme % T0 at 2 hours at 37 °C. ([6]; Table 2A): 32%

[2H]C([2H])([2H])N1CC(=O)N=C1NC(=O)CCCCCCCCCC [Compound 49]
half-life ([1]; Table 2A): > 3 h
half-life ([2]; Table 2A): 0.783 h
half-life at 10 μM ([3]; pH 7.4, Table 2A): 0.4 h
half-life at 10 μM ([4]; pH 7.4, Table 2A): < 0.0833 h
Chemical Stability PBS % T0 at 2 hours at 37 °C. ([5]; Table 2A): 87%
Chemical Stability SGF, no enzyme % T0 at 2 hours at 37 °C. ([6]; Table 2A): 62%

[2H]C([2H])([2H])N(CC(=O)[O-])C(=N)NC(=O)CCCCCCCCCCCO.[Na+] [Compound 56]
half-life ([1]; Table 2B): > 3 h
half-life ([2]; Table 2B): > 3 h
half-life at 10 μM ([3]; pH 7.4, Table 2B): > 1.5 h
half-life at 10 μM ([4]; pH 7.4, Table 2B): > 1.5 h
Chemical Stability PBS % T0 at 2 hours at 37 °C. ([5]; Table 2B): 58%
Chemical Stability SGF, no enzyme % T0 at 2 hours at 37 °C. ([6]; Table 2B): 81%

[2H]C([2H])([2H])N(CC(=O)[O-])C(=N)NC(=O)CCCCCCCCCC(C)O.[Na+] (stereo not shown) [Compound 57]
half-life ([1]; Table 2B): > 3 h
half-life ([2]; Table 2B): > 3 h
half-life at 10 μM ([3]; pH 7.4, Table 2B): > 1.5 h
half-life at 10 μM ([4]; pH 7.4, Table 2B): > 1.5 h
Chemical Stability PBS % T0 at 2 hours at 37 °C. ([5]; Table 2B): 78%
Chemical Stability SGF, no enzyme % T0 at 2 hours at 37 °C. ([6]; Table 2B): 89%

[2H]C([2H])([2H])N(CC(=O)OC(C)(C)C(C)C)C(=N)NC(=O)CCCCCC [Compound 60]
half-life ([1]; Table 2B): > 3 h
half-life ([2]; Table 2B): > 3 h
half-life at 10 μM ([3]; pH 7.4, Table 2B): < 0.0833 h
half-life at 10 μM ([4]; pH 7.4, Table 2B): < 0.0833 h
Chemical Stability PBS % T0 at 2 hours at 37 °C. ([5]; Table 2B): 101%
Chemical Stability SGF, no enzyme % T0 at 2 hours at 37 °C. ([6]; Table 2B): 99%

[2H]C([2H])([2H])N(CC(=O)OC(C)(C)C(C)(C)O)C(=N)NC(=O)CCCCCCCCCC [Compound 61]
half-life ([1]; Table 2B): < 0.0833 h
half-life ([2]; Table 2B): < 0.0833 h
half-life at 10 μM ([3]; pH 7.4, Table 2B): < 0.0833 h
half-life at 10 μM ([4]; pH 7.4, Table 2B): < 0.0833 h
Chemical Stability PBS % T0 at 2 hours at 37 °C. ([5]; Table 2B): 106%
Chemical Stability SGF, no enzyme % T0 at 2 hours at 37 °C. ([6]; Table 2B): 99%

[2H]C([2H])([2H])N(CC(=O)OC(C)(C)C(C)C)C(=N)NC(=O)CCCCCCCCCC [Compound 62]
half-life ([1]; Table 2B): > 3 h
half-life ([2]; Table 2B): 1.27 h
half-life at 10 μM ([3]; pH 7.4, Table 2B): < 0.0833 h
half-life at 10 μM ([4]; pH 7.4, Table 2B): < 0.0833 h
Chemical Stability PBS % T0 at 2 hours at 37 °C. ([5]; Table 2B): 62%
Chemical Stability SGF, no enzyme % T0 at 2 hours at 37 °C. ([6]; Table 2B): 103%

[2H]C([2H])([2H])N(CC(=O)OC(C)(C)C(C)(C)O)C(=N)NC(=O)CCCCCC [Compound 63]
half-life ([1]; Table 2B): < 0.0833 h
half-life ([2]; Table 2B): < 0.0833 h
half-life at 10 μM ([3]; pH 7.4, Table 2B): < 0.0833 h
half-life at 10 μM ([4]; pH 7.4, Table 2B): < 0.0833 h
Chemical Stability PBS % T0 at 2 hours at 37 °C. ([5]; Table 2B): 58%
Chemical Stability SGF, no enzyme % T0 at 2 hours at 37 °C. ([6]; Table 2B): 101%
